The supplement of paper PMC8612539
Converted amounts (≈) assume the structure as drawn.

Columns and labels:
Enterococcus spp. = assay: minimum inhibitory concentration (MIC)
Procedure: (§1)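 Broth microdilution MIC (Sensititre BOPO7F bovine plate, CLSI methods) of 19 antimicrobials against field isolates of P. multocida, M. haemolytica, H. somni (deep nasopharyngeal swabs) and E. coli, Enterococcus spp. (rectal swabs) from weaned dairy heifers. Incubation 16-24 h at 35 C. MIC is the lowest concentration preventing visible growth. Values with <= or > lie at the tested range limits. Trimethoprim-sulfamethoxazole is given as the trimethoprim component of a 1:19 mixture.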

Mannheimia haemolytica = assay: minimum inhibitory concentration (MIC)
Procedure: as §1

CN[C@@H]1[C@H](O)[C@H](NC)[C@H]2O[C@@]3(O)C(=O)C[C@@H](C)O[C@H]3O[C@@H]2[C@H]1O [Spectinomycin]
minimum inhibitory concentration [µg/mL]
Conditions	Enterococcus spp.	Mannheimia haemolytica
isolate (source animal id): 2	64 (≈ 193 µM)	–
isolate (source animal id): 8	–	32 (≈ 96.3 µM)
isolate (source animal id): 13	–	32 (≈ 96.3 µM)
isolate (source animal id): 18	–	32 (≈ 96.3 µM)
isolate (source animal id): 21	–	32 (≈ 96.3 µM)
isolate (source animal id): 25	–	32 (≈ 96.3 µM)
isolate (source animal id): 27	–	32 (≈ 96.3 µM)
isolate (source animal id): 28	–	> 64
isolate (source animal id): 30	–	32 (≈ 96.3 µM)
isolate (source animal id): 31	–	> 64
isolate (source animal id): 32	–	32 (≈ 96.3 µM)
isolate (source animal id): 34	–	32 (≈ 96.3 µM)
isolate (source animal id): 35	> 64	–
isolate (source animal id): 36	–	32 (≈ 96.3 µM)
isolate (source animal id): 37	–	32 (≈ 96.3 µM)
isolate (source animal id): 40	–	32 (≈ 96.3 µM)
isolate (source animal id): 41	–	32 (≈ 96.3 µM)
isolate (source animal id): 42	64 (≈ 193 µM)	–
isolate (source animal id): 43	–	32 (≈ 96.3 µM)
isolate (source animal id): 44	64 (≈ 193 µM)	–
isolate (source animal id): 46	–	32 (≈ 96.3 µM)
isolate (source animal id): 49	–	32 (≈ 96.3 µM)
isolate (source animal id): 50	–	32 (≈ 96.3 µM)
isolate (source animal id): 51	–	32 (≈ 96.3 µM)
isolate (source animal id): 52	–	32 (≈ 96.3 µM)
isolate (source animal id): 53	–	32 (≈ 96.3 µM)
isolate (source animal id): 55	–	32 (≈ 96.3 µM)
isolate (source animal id): 56	–	32 (≈ 96.3 µM)
isolate (source animal id): 57	–	> 64
isolate (source animal id): 79	64 (≈ 193 µM)	–
isolate (source animal id): 88	32 (≈ 96.3 µM)	–
isolate (source animal id): 91	32 (≈ 96.3 µM)	–
isolate (source animal id): 92	16 (≈ 48.1 µM)	–
isolate (source animal id): 100	–	> 64
isolate (source animal id): 103	–	32 (≈ 96.3 µM)
isolate (source animal id): 107	–	32 (≈ 96.3 µM)
isolate (source animal id): 108	–	> 64
isolate (source animal id): 111	32 (≈ 96.3 µM)	–
isolate (source animal id): 112	–	32 (≈ 96.3 µM)
isolate (source animal id): 113	–	> 64
isolate (source animal id): 121	–	32 (≈ 96.3 µM)
isolate (source animal id): 122	> 64	32 (≈ 96.3 µM)
isolate (source animal id): 123	64 (≈ 193 µM)	> 64
isolate (source animal id): 126	–	32 (≈ 96.3 µM)
isolate (source animal id): 133	64 (≈ 193 µM)	32 (≈ 96.3 µM)
isolate (source animal id): 135	–	> 64
isolate (source animal id): 138	–	32 (≈ 96.3 µM)
isolate (source animal id): 141	–	> 64
isolate (source animal id): 142	–	32 (≈ 96.3 µM)
isolate (source animal id): 145	–	16 (≈ 48.1 µM)
isolate (source animal id): 149	–	32 (≈ 96.3 µM)
isolate (source animal id): 151	–	32 (≈ 96.3 µM)
isolate (source animal id): 152	–	16 (≈ 48.1 µM)
isolate (source animal id): 154	–	32 (≈ 96.3 µM)
isolate (source animal id): 158	64 (≈ 193 µM)	–
isolate (source animal id): 159	–	16 (≈ 48.1 µM)
isolate (source animal id): 162	–	16 (≈ 48.1 µM)
isolate (source animal id): 168	64 (≈ 193 µM)	–
isolate (source animal id): 169	64 (≈ 193 µM)	–
isolate (source animal id): 170	–	32 (≈ 96.3 µM)
isolate (source animal id): 171	64 (≈ 193 µM)	32 (≈ 96.3 µM)
isolate (source animal id): 172	–	32 (≈ 96.3 µM)
isolate (source animal id): 173	–	32 (≈ 96.3 µM)
isolate (source animal id): 175	64 (≈ 193 µM)	–
isolate (source animal id): 177	64 (≈ 193 µM)	–
isolate (source animal id): 179	–	32 (≈ 96.3 µM)
isolate (source animal id): 180	–	32 (≈ 96.3 µM)
isolate (source animal id): 181	64 (≈ 193 µM)	–
isolate (source animal id): 182	64 (≈ 193 µM)	–
isolate (source animal id): 183	64 (≈ 193 µM)	32 (≈ 96.3 µM)
isolate (source animal id): 186	–	32 (≈ 96.3 µM)
isolate (source animal id): 187	64 (≈ 193 µM)	32 (≈ 96.3 µM)
isolate (source animal id): 188	–	32 (≈ 96.3 µM)
isolate (source animal id): 190	64 (≈ 193 µM)	32 (≈ 96.3 µM)
isolate (source animal id): 191	–	32 (≈ 96.3 µM)
isolate (source animal id): 192	–	32 (≈ 96.3 µM)
isolate (source animal id): 194	64 (≈ 193 µM)	–
isolate (source animal id): 195	64 (≈ 193 µM)	–
isolate (source animal id): 197	64 (≈ 193 µM)	–
isolate (source animal id): 201	–	32 (≈ 96.3 µM)
isolate (source animal id): 202	–	32 (≈ 96.3 µM)
isolate (source animal id): 209	–	32 (≈ 96.3 µM)
isolate (source animal id): 211	64 (≈ 193 µM)	32 (≈ 96.3 µM)
isolate (source animal id): 214	64 (≈ 193 µM)	–
isolate (source animal id): 220	–	32 (≈ 96.3 µM)
isolate (source animal id): 221	–	32 (≈ 96.3 µM)
isolate (source animal id): 222	64 (≈ 193 µM)	–
isolate (source animal id): 223	64 (≈ 193 µM)	≤ 8
isolate (source animal id): 228	64 (≈ 193 µM)	–
isolate (source animal id): 230	64 (≈ 193 µM)	–
isolate (source animal id): 233	–	32 (≈ 96.3 µM)
isolate (source animal id): 235	64 (≈ 193 µM)	–
isolate (source animal id): 236	64 (≈ 193 µM)	–
isolate (source animal id): 237	–	32 (≈ 96.3 µM)
isolate (source animal id): 239	64 (≈ 193 µM)	–
isolate (source animal id): 241	64 (≈ 193 µM)	32 (≈ 96.3 µM)
isolate (source animal id): 244	64 (≈ 193 µM)	–
isolate (source animal id): 246	64 (≈ 193 µM)	–
isolate (source animal id): 247	64 (≈ 193 µM)	–
isolate (source animal id): 250	64 (≈ 193 µM)	–
isolate (source animal id): 252	64 (≈ 193 µM)	32 (≈ 96.3 µM)
isolate (source animal id): 253	–	> 64
isolate (source animal id): 259	–	32 (≈ 96.3 µM)
isolate (source animal id): 260	–	> 64
isolate (source animal id): 262	–	32 (≈ 96.3 µM)
isolate (source animal id): 268	32 (≈ 96.3 µM)	–
isolate (source animal id): 282	16 (≈ 48.1 µM)	32 (≈ 96.3 µM)
isolate (source animal id): 285	> 64	–
isolate (source animal id): 287	–	32 (≈ 96.3 µM)
isolate (source animal id): 288	–	32 (≈ 96.3 µM)
isolate (source animal id): 289	64 (≈ 193 µM)	–
isolate (source animal id): 290	64 (≈ 193 µM)	–
isolate (source animal id): 291	–	32 (≈ 96.3 µM)
isolate (source animal id): 293	–	16 (≈ 48.1 µM)
isolate (source animal id): 296	64 (≈ 193 µM)	–
isolate (source animal id): 298	64 (≈ 193 µM)	16 (≈ 48.1 µM)
isolate (source animal id): 299	–	32 (≈ 96.3 µM)
isolate (source animal id): 300	–	32 (≈ 96.3 µM)
isolate (source animal id): 301	32 (≈ 96.3 µM)	–
isolate (source animal id): 302	–	32 (≈ 96.3 µM)
isolate (source animal id): 304	–	32 (≈ 96.3 µM)
isolate (source animal id): 306	–	32 (≈ 96.3 µM)
isolate (source animal id): 308	–	32 (≈ 96.3 µM)
isolate (source animal id): 309	–	32 (≈ 96.3 µM)
isolate (source animal id): 310	64 (≈ 193 µM)	–
isolate (source animal id): 313	–	16 (≈ 48.1 µM)
isolate (source animal id): 318	–	16 (≈ 48.1 µM)
isolate (source animal id): 320	64 (≈ 193 µM)	32 (≈ 96.3 µM)
isolate (source animal id): 321	–	16 (≈ 48.1 µM)
isolate (source animal id): 323	–	32 (≈ 96.3 µM)
isolate (source animal id): 324	–	16 (≈ 48.1 µM)
isolate (source animal id): 326	–	16 (≈ 48.1 µM)
isolate (source animal id): 328	–	16 (≈ 48.1 µM)
isolate (source animal id): 329	–	16 (≈ 48.1 µM)
isolate (source animal id): 331	64 (≈ 193 µM)	–
isolate (source animal id): 333	64 (≈ 193 µM)	16 (≈ 48.1 µM)
isolate (source animal id): 335	–	16 (≈ 48.1 µM)
isolate (source animal id): 338	–	16 (≈ 48.1 µM)
isolate (source animal id): 341	64 (≈ 193 µM)	–
